According to publication PMC6112376, “Comprehensive Analyses and Prioritization of Tox21 10K Chemicals Affecting Mitochondrial Function by in-Depth Mechanistic Studies” (Environmental Health Perspectives, 2018):
Where a name gives a salt, the structure may show the parent alone. Read-outs that look alike come from different tables or passages of the source.

Columns and labels:
[1] = test system: rat primary hepatocytes; experiment: MMP assay in rat primary hepatocytes; details: for IC50: Rattus norvegicus, Hepatocyte, read-out: MMP assays IC50 (µM) Rat Hepatocytes
[2] = test system: rat primary hepatocytes
[3] = test system: HepG2 cells; details: cited from earlier work
[4] = test system: HepG2 cells; experiment: cells; details: Homo sapiens; for IC50: HepG2, read-out: MMP assays IC50 (µM) HepG2; for Emax: HepG2, read-out: MMP assays efficacy (%) HepG2
[5] = read-out: MMP assays IC50 (µM) qHTS-HepG2
[6] = read-out: MMP assays IC50 (µM), qHTS-HepG2

SMILES | IC50 [1] [µM] | MMP assays efficacy (%) Rat Hepatocytes [2] | MMP assays efficacy (%) qHTS-HepG2 [3] [%] | IC50 [3, 5] [µM] | IC50 [4] [µM] | Emax [4] [%] | IC50 [3, 6] [µM] | MMP assays IC50 (µM) Rat Hepatocytes [1]
CCOC(=O)C1(c2ccccc2)CCN(CCC(C#N)(c2ccccc2)c2ccccc2)CC1 [Diphenoxylate hydrochloride] | 19.4 | -81±36% | -56±8 | 20.7 ± 1.19 | 17.3 | 71 | – | –
CN(C)C(=S)SSC(=S)N(C)C [THIRAM] | 16.5 ± 20.3 | -96±85% | -57±29 | – | 24.5 | 66 | – | –
CC(=O)CC(c1ccccc1)c1c(O)c2ccccc2oc1=O (stereo not shown) [Sodium warfarin] | 35.5 | -77±32% | -95±22 | – | 35.5 | 65 | 38.6 ± 12.8 | –
CC(=O)N1CCN(c2ccc(OCC3COC(Cn4ccnc4)(c4ccc(Cl)cc4Cl)O3)cc2)CC1 (stereo not shown) [Ketoconazole] | – | inactive | -56±14 | – | 5.48 | 55 | 10.8 ± 3.25 | inactive
N#CC(C#N)=NNc1cccc(Cl)c1 [Carbonyl cyanide chlorophenylhydrazone] | – | inactive | – | 0.15 ± 0.04 | 0.25 | 96 | – | inactive
CCCOC(=O)c1ccc(O)cc1 [Propylparaben] | – | inactive | -99±4 | – | 35.5 | 91 | 38.6 ± 1.67 | inactive
O=C(Nc1ccc(Cl)c(Cl)c1)c1cc(Cl)cc(Cl)c1O [3,5-Dichlorosalicyl-3,4-dichloroanilide] | 0.38 ± 0.03 | -67±6% | -105±6 | 0.22 ± 0.09 | 0.11 | 93 | – | –
CS(=O)(=O)c1ccc(C(=O)C2C(=O)CCCC2=O)c([N+](=O)[O-])c1 [Mesotrione] | – | inactive | -75±17 | – | 39.8 | 72 | 18 ± 12 | inactive
CC(=O)O[C@H]1C[C@H](O[C@H]2[C@@H](O)C[C@H](O[C@H]3[C@@H](O)C[C@H](O[C@H]4CC[C@@]5(C)[C@H](CC[C@@H]6[C@@H]5C[C@@H](O)[C@]5(C)[C@@H](C7=CC(=O)OC7)CC[C@]65O)C4)O[C@@H]3C)O[C@@H]2C)O[C@H](C)[C@H]1O[C@@H]1O[C@H](CO)[C@@H](O)[C@H](O)[C@H]1O [Lanatoside C] | – | inactive | -51±10 | – | 0.31 | 92 | 0.78 ± 0.14 | inactive
Nc1ccc2cc3ccccc3cc2c1 [Compound 2-Aminoanthracene] | 0.18 ± 0.2 | -51±35% | -72±12 | 4.71 ± 1.92 | 3.55 | 73 | – | –
c1ccc(-c2cccc(-c3ccccc3)c2)cc1 [1,1':3',1''-Terphenyl] | 29.6 ± 27.7 | -53±28% | -80±13 | 47.9 ± 14.3 | 50.1 | 90 | – | –
CCCCCc1cc(O)c2c(c1)OC(C)(C)c1ccc(C)cc1-2 [Cannabinol] | 21.8 | -98±2% | -124±7 | 1.68 | 1.09 | 103 | – | –
CCC(C)c1cc([N+](=O)[O-])cc([N+](=O)[O-])c1OC(=O)OC(C)C (stereo not shown) [Dinobuton] | 5.74 ± 4.21 | -115±54% | -105±4 | 4.33 ± 1.24 | 7.94 | 101 | – | –
Cc1cc(C)c(/C=C2\C(=O)Nc3ccccc32)[nH]1 [SU-5416] | 11 ± 1.78 | -83±12% | -116±2 | – | 13.8 | 115 | 12.5 ± 1.78 | –
O=C(NC(=O)c1c(F)cccc1F)Nc1cc(Cl)c(Oc2ncc(C(F)(F)F)cc2Cl)c(Cl)c1 [Chlorfluazuron] | 29.3 ± 1.99 | -79±42% | -114±19 | 8.93 ± 4.57 | 12.6 | 98 | – | –
C[C@@H]1O[C@@H](O[C@@H]2C=C3CC[C@@H]4[C@H](CC[C@]5(C)[C@@H](c6ccc(=O)oc6)CC[C@]45O)[C@@]3(C)CC2)[C@H](O)[C@H](O)[C@H]1O [Proscillaridin] | – | inactive | -72±4 | – | 0.066 | 86 | 0.09 ± 0.02 | inactive
CCCCCCCCCCCCc1ccc(O)cc1 [Compound 4-Dodecylphenol] | 25.1 ± 21.8 | -53±17% | -96±3 | 3.18 ± 0.58 | 5.01 | 102 | – | –
CN(C)S(=O)(=O)N(SC(F)(Cl)Cl)c1ccccc1 [Dichlofluanid] | 23 ± 29.5 | -59±33% | -105±5 | 5.24 ± 1.99 | 25.1 | 99 | – | –
O=c1cc(-c2ccc(O)cc2)oc2cc(O)cc(O)c12 [Apigenin] | 28.9 ± 9.26 | -66±35% | -98±2 | 1.61 | 3.55 | 88 | – | –
CCC/C=C/C=C/C(=O)O[C@H]1/C(=C/C(=O)OC)C[C@H]2C[C@H]([C@@H](C)O)OC(=O)C[C@H](O)C[C@@H]3C[C@H](OC(C)=O)C(C)(C)[C@](O)(C[C@@H]4C/C(=C/C(=O)OC)C[C@H](/C=C/C(C)(C)[C@]1(O)O2)O4)O3 [Bryostatin 1] | 0.79 ± 1.07 | -46±21% | -105±21 | 0.01 ± 0.01 | 0.001 | 92 | – | –
O=c1c(-c2ccc(O)cc2)coc2cc(O)cc(O)c12 [Genistein] | 33.7 ± 19.5 | -70±41% | -101±1 | – | 10 | 96 | 6.34 ± 0.77 | –
Oc1ccc(Cl)cc1Sc1cc(Cl)ccc1O [Fenticlor] | 13.9 ± 8.84 | -88±15% | -107±14 | – | 5.48 | 101 | 2.15 ± 0.36 | –
COC1C(O)CC(OC2CC(Oc3cc4cc5c(c(O)c4c(O)c3C)C(=O)[C@@H](OC3CC(OC4CC(OC6CC(C)(O)C(OC(C)=O)C(C)O6)C(O)C(C)O4)C(O)C(C)O3)[C@H]([C@H](OC)C(=O)[C@@H](O)[C@@H](C)O)C5)OC(C)C2OC(C)=O)OC1C (stereo partly shown) [chromomycin] | – | inactive | -84±13 | 12.3 ± 0.84 | 35.5 | 44 | – | inactive
Cc1cc2nc3c(=O)[nH]c(=O)nc-3n(C[C@H](O)[C@H](O)[C@H](O)CO)c2cc1C [Riboflavin] | 31.3 ± 8.72 | -97±58% | -113±7 | – | 11.2 | 86 | 7.02 ± 1.78 | –
Clc1ccc(C(c2ccc(Cl)cc2)C(Cl)Cl)cc1 [p,p'-DDD] | 42.2 ± 19.8 | -37±12% | -103±18 | – | 39.8 | 108 | 15.2 ± 8.82 | –
